According to PubChem BioAssay (NCI):
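Dose response: 5 concentrations. Exposure: 48 h. Format: 96-well plates. Endpoint: linear interpolation; highest concentration if not reached. At the TGI there is no net growth.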

What was measured:
Test in all cases: NCI-60 cell line screen, 48 h
MALME-3M melanoma = test system: MALME-3M melanoma
DU-145 prostate = test system: DU-145 prostate
NCI-H226 lung = test system: NCI-H226 lung
SK-OV-3 ovarian = test system: SK-OV-3 ovarian
PC-3 prostate = test system: PC-3 prostate
HCT-15 colon = test system: HCT-15 colon
T-47D breast = test system: T-47D breast
NCI-H522 lung = test system: NCI-H522 lung
MDA-MB-435 = test system: MDA-MB-435
OVCAR-8 ovarian = test system: OVCAR-8 ovarian
SK-MEL-5 melanoma = test system: SK-MEL-5 melanoma
A549 NSCLC = test system: A549 NSCLC
RXF 393 renal = test system: RXF 393 renal
MDA-N = test system: MDA-N
786-0 renal = test system: 786-0 renal
UO-31 renal = test system: UO-31 renal
HOP-92 NSCLC = test system: HOP-92 NSCLC

Structure (SMILES)	TGI (MALME-3M melanoma)	TGI (DU-145 prostate)	TGI (NCI-H226 lung)	TGI (SK-OV-3 ovarian)	TGI (PC-3 prostate)	TGI (HCT-15 colon)	TGI (T-47D breast)	TGI (NCI-H522 lung)	TGI (MDA-MB-435)	TGI (OVCAR-8 ovarian)	TGI (SK-MEL-5 melanoma)	TGI (A549 NSCLC)	TGI (RXF 393 renal)	TGI (MDA-N)	TGI (786-0 renal)	TGI (UO-31 renal)	TGI (HOP-92 NSCLC)
CCOc1ccccc1N=NC1C(=O)N(C(=O)CC(=O)Nc2ccccc2Cl)N=C1C (centres undefined)	> 100 µM	> 100 µM	> 100 µM	90.3 µM	> 100 µM	> 100 µM	> 100 µM	> 100 µM	> 100 µM	> 100 µM	> 100 µM	> 100 µM	> 100 µM	> 100 µM	> 100 µM	> 100 µM	70 µM
CCCCC/C=C1\CCC(CN2CCOCC2)C1=O (centres undefined)	18.9 µM	33.2 µM	33.5 µM	35.3 µM	30.9 µM	21.8 µM	9.95 µM	5.18 µM	17.8 µM	13 µM	31.1 µM	39.4 µM	12.3 µM	25.4 µM	7.17 µM	25.9 µM	29 µM
COc1ccc(C(=O)N=C2N(c3ccccc3)C(=Nc3ccccc3)C(=Nc3ccccc3)N2c2ccccc2)cc1	> 58.3 µM	> 100 µM	> 100 µM	> 100 µM	> 65.5 µM	> 100 µM	> 100 µM	> 100 µM	> 100 µM	> 100 µM	> 56.7 µM	> 100 µM	25.8 µM	> 100 µM	59.5 µM	> 100 µM	15 µM
CC(=O)NC1C(OCc2ccccc2)OC(CO)C(O)C1OCC(=O)NC(C)C(=O)NC(CCC(=O)OCCNC(=O)c1cccc2cc3ccccc3nc12)C(N)=O (centres undefined)	31.4 µM	26.6 µM	44.7 µM	58.2 µM	> 100 µM	33.6 µM	54.6 µM	34 µM	42.4 µM	39.4 µM	31.3 µM	23.4 µM	39.7 µM	> 100 µM	70.8 µM	36.2 µM	59 µM
O=C1c2ccccc2C(=O)c2[nH]c(=O)c(/C=N/Nc3ccc([N+](=O)[O-])cc3)nc21	2.78 µM	2.88 µM	4.45 µM	> 47.3 µM	> 57.9 µM	> 38.8 µM	> 95 µM	13 µM	3.99 µM	> 50.7 µM	2.82 µM	> 100 µM	33.4 µM	2.63 µM	> 62.2 µM	> 48 µM	38 µM
C[C@@H]1O[C@@H]2OCC[C@@H]2C2=C1C(=O)c1ccccc1C2=O	4.95 µM	21 µM	61.5 µM	89.9 µM	> 100 µM	44.5 µM	31.9 µM	20.3 µM	3.69 µM	> 100 µM	19.2 µM	41.9 µM	13.3 µM	3.35 µM	29.1 µM	22.8 µM	18.9 µM
CCN(CC)CC1CCCCN1CC(=O)N1c2ccc(Br)cc2C(=O)Nc2cccnc21 (centres undefined)	> 100 µM	> 100 µM	> 100 µM	> 100 µM	> 100 µM	> 100 µM	> 100 µM	> 100 µM	> 100 µM	> 100 µM	> 100 µM	> 100 µM	> 100 µM	> 100 µM	> 100 µM	44.8 µM	> 100 µM
CC(C)C(OC(=O)c1cc(NC(=S)c2ccccc2)ccc1Cl)C(C)C	> 57.8 µM	> 100 µM	45.5 µM	99.4 µM	38.4 µM	74.4 µM	29.5 µM	29.4 µM	> 100 µM	> 100 µM	29.9 µM	> 94.7 µM	37.1 µM	39.8 µM	50.8 µM	54.6 µM	34.4 µM
C[C@H](C(=O)N1C(=O)O[C@@H](c2ccccc2)[C@H]1C)[C@H](c1ccccc1)N(Cc1ccccc1)OC(=O)c1ccccc1	> 100 µM	> 100 µM	> 100 µM	> 100 µM	> 100 µM	> 100 µM	> 100 µM	> 100 µM	> 100 µM	> 100 µM	69.2 µM	> 100 µM	> 100 µM	> 100 µM	> 100 µM	> 100 µM	> 100 µM
COc1ccc(C(F)(F)F)cc1NC(=O)O/N=C(/Cl)C(C)C	24.7 µM	34.3 µM	35.6 µM	> 67.3 µM	34.5 µM	> 30.4 µM	45.5 µM	4.57 µM	48.1 µM	41.1 µM	25.5 µM	40 µM	36.8 µM	32.4 µM	31.8 µM	33.3 µM	18.9 µM
O=[N+]([O-])/C(Cl)=C(\Sc1ccccc1)C(Cl)=C(Cl)Cl	1.97 µM	3.08 µM	4.47 µM	13.3 µM	4.12 µM	1.5 µM	4.88 µM	0.802 µM	0.453 µM	0.351 µM	1.72 µM	1.53 µM	2.6 µM	0.761 µM	1.07 µM	0.654 µM	3.4 µM
C/C(=N/NC(=S)Nc1cccc(Cl)c1)c1cccc(/C(C)=N\NC(=S)Nc2cccc(Cl)c2)n1	22.4 µM	> 73.1 µM	5.44 µM	> 55.3 µM	> 58.1 µM	> 100 µM	> 100 µM	> 27 µM	> 100 µM	> 37.5 µM	35 µM	> 24.5 µM	> 43.9 µM	> 65.7 µM	> 41.7 µM	> 20.9 µM	> 100 µM
COc1cc(C(CN)N(C)C)cc(OC)c1OC (centres undefined)	> 100 µM	> 100 µM	71.6 µM	> 100 µM	> 100 µM	> 100 µM	> 100 µM	> 100 µM	> 100 µM	> 100 µM	> 100 µM	> 100 µM	> 100 µM	> 100 µM	> 100 µM	> 100 µM	> 100 µM
COC(=O)C1=C(O)C(C(=O)OC)[C@@]2(O)[C@@H](C(=O)OC)C(c3ccc(OC(=O)/C(=C/c4ccccc4)c4ccccc4)cc3)C[C@@H]1[C@@H]2C(=O)OC (some centres undefined)	> 100 µM	> 100 µM	42.6 µM	> 100 µM	> 100 µM	> 100 µM	> 100 µM	> 100 µM	> 100 µM	> 100 µM	> 100 µM	> 100 µM	63.1 µM	87.7 µM	> 100 µM	40.4 µM	> 100 µM
O=C(CCNC(=O)OCc1ccccc1)OCCCNC(=O)OCc1ccccc1	> 100 µM	> 100 µM	> 100 µM	> 100 µM	> 100 µM	> 100 µM	> 100 µM	> 100 µM	> 100 µM	> 100 µM	> 100 µM	> 100 µM	> 100 µM	> 100 µM	> 100 µM	> 100 µM	> 100 µM
CNC(=S)N/N=C(\C)c1ccc(OC)cc1O	> 100 µM	> 100 µM	> 100 µM	> 100 µM	> 100 µM	> 100 µM	> 100 µM	> 100 µM	> 100 µM	> 100 µM	> 69.5 µM	> 100 µM	> 100 µM	> 100 µM	> 100 µM	> 100 µM	> 100 µM
COC(=O)c1ccc(NCc2cc(O)c3ccccc3c2O)cc1	5.95 µM	30.3 µM	40 µM	31.6 µM	33.5 µM	28.8 µM	40.7 µM	43.8 µM	4.63 µM	93.4 µM	3.15 µM	23.4 µM	48.9 µM	3.98 µM	46.5 µM	26.7 µM	9.97 µM
